Experimental data: patent publication US8158750B2, “Preparation and standardization of immunomodulatory peptide-linked glucans with verifiable oral absorbability from coriolus versicolor” (The Chinese University of Hong Kong, priority 2002, dated 2012)

System: murine peritoneal macrophages
Assay: Secretion of nitric oxide by murine peritoneal macrophages in vitro (Griess reaction)
Type: cell-based, ICR mice
Conditions: 24 hours
Description: Ten ICR mice were injected intraperitoneally with 1 ml 3% w/v aqueous thioglycolate. After 3 days, the mice were sacrificed by cervical dislocation. Macrophages were harvested by opening the peritoneum and lavaging the space with PBS. The PBS lavage from each sacrificed mouse was pooled. […] The cells were allowed to adhere on the bottom of the wells of microtiter plates for 1 hr at 37° C. in a humidified atmosphere of […] and 5% CO2. Next, the supernatant in the wells was carefully removed. […] The contacted cells were incubated at 37° C. in a humidified atmosphere of […] and 5% CO2 for 24 hours. At 24 hours, the amount of nitrate present in the cell-free culture medium was determined by the Griess reaction. (See Green L. C. et al, Analysis of nitrate, nitrite, and [15N] nitrate in biological fluids, Anal. Biochem., 1982, 126:131-138.) A 150 μl aliquot of cell-free culture medium was pipetted from each microtiter plate well, and reacted with 50 μl of Griess reagent for 10 minutes in a fresh microtiter plate well. Absorbance of the aliquot was then measured at 540 nm using a microplate reader (BTI, ELX 800).

lipopolysaccharide [LPS]
Increased secretion of nitric oxide, dose dependence: dose-dependent at low LPS concentrations
